Data on eight molecules can be found in patent US20230416261A1, “ETHANEDIAMINE-HETEROCYCLE DERIVATIVES AS INHIBITORS OF PROTEIN ARGININE METHYLTRANSFERASES” (Board of Regents, The University of Texas System, priority 2021, published 2023).

Experiment [1] addresses T1, PRMT1 (Homo sapiens, UniProt Q99873). The experiment is described as follows: PRMT1 RKO Cellular Target Engagement Assay (In-Cell Western, asymmetric di-methyl arginine). It counts as cell-based. The following applies: RKO cells, 48 hr compound incubation; read-out: RKO IC50 (PRMT-1 Target Engagement). In a few lines: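 RKO cells (1,000/well) received 1:3 serially diluted compound for 48 h at 37 °C, then were fixed, permeabilised and immunostained for asymmetric di-methyl arginine by In-Cell Western. The 800 nm antibody signal was normalised to CellTag 700 nm; IC50 from four-parameter logistic fit.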

The test system of experiment [2] is DOHH2 cells. Nature of the experiment: DOHH2 Long Term Phenotypic Assay (7 days, Cell Titer-Glo viability). It counts as cell-based. The following applies: Homo sapiens, DOHH-2, 168 h, Cell Titer-Glo 2.0. In a few lines: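 DOHH2 lymphoma cells (250 per well) in RPMI-1640 with 10% FBS were exposed to 1:3 serially diluted compounds for 7 days at 37 °C, 5% CO2. Viability was read by CellTiter-Glo 2.0 luminescence, and IC50 values came from four-parameter logistic fits.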
(In general: In ATP-based viability assays light output follows the ATP content of the culture.)

The target in experiment [3] is T1, PRMT1. Nature of the experiment: PRMT1 Enzymatic Assay (LANCE TR-FRET, methylation of histone H4 at Arg3). The experiment is classed as biochemical. Further details: purchased SignalChem P365-380G. As to conditions: PRMT1 1.5 nM, SAM 1 μM, biotinylated histone H4 (1-21) 25 nM; read-out: PRMT-1 IC50. The procedure, abridged:
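PRMT1 (1.5 nM) preincubated 15 min with compound at room temperature, then reacted 1 h with 1 μM SAM and 25 nM biotinylated histone H4 (1-21) in 50 mM Hepes pH 8, 1 mM TCEP, 0.003% Tween-20. H4R3me detected by TR-FRET (665/620 nm ratio); IC50 from four-parameter logistic fit.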
(In general: In TR-FRET formats the signal depends on donor and acceptor labels being close together.)

Experiment [4] relates to PATC53 cells. The experiment is described as follows: PATC53 Long Term Phenotypic Assay (14 days, crystal violet viability). It counts as cell-based. As to conditions: 336 h. Here is the method: PATC53 cells were derived from the PATC53 PDX model and kindly provided by Jason Fleming (MDACC). The cells were routinely maintained in DMEM/F12 Medium (Corning, Catalog #10-090-CV) supplemented with 10% fetal bovine serum (Sigma, Catalog #F2442), 100 units/mL penicillin and 100 μg/mL streptomycin (Gibco, Catalog #15140-122) in a humidified incubator (37° C., 5% CO2). Prior to the assay, cells were seeded onto a 12-well, TC treated plate (Corning, catalog #353043) at a density of 250 cells per well in a volume of 1 mL. The plate was incubated for 24 hours at 37° C. and 5% CO2. Stock solutions of the test compounds were prepared in 100% DMSO (Sigma, Catalog #D2650) and serially diluted 1:3 using 100% DMSO. Compounds were additionally diluted 1:100 in culture medium, and 110 μL/well was transferred to the tissue culture plate. Following the compound addition, the plate was incubated at 37° C. and 5% CO2 for 14 days. Viability was then assessed by crystal violet staining (Fisher Scientific, Catalog #C58125) as follows: 450 μL of crystal violet (1 mg/mL) was added to the plate for a 10 minute incubation at room temperature. After incubation, the plate was washed 3× with distilled water to remove excess dye and allowed to dry overnight. The crystal violet was solubilized using 10% HOAc (500 μL) for 10 minutes at room temperature, while shaking. A volume of 100 μL was then transferred to a 96-well SpectraPlate (Perkin Elmer, Catalog #6005649). Absorbance at 590 nm was measured with a BioTek Synergy Neo. IC50 values were calculated using a four-parameter logistic curve fit using Genedata Screener software.

T1 sequence (Q99873 whole entry): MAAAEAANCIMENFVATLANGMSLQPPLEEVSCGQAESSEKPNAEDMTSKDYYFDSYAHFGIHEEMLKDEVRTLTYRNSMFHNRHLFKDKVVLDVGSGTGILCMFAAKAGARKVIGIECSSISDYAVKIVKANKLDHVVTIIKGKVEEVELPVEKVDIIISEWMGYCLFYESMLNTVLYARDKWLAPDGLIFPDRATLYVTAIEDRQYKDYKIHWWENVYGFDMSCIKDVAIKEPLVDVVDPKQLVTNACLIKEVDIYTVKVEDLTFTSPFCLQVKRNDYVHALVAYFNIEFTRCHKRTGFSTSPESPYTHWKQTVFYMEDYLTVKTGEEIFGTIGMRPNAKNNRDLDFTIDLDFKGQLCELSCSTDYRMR

Broadly, the IC50 is the concentration that inhibits the measured activity by half. Take `CNCCN(C)Cc1nn2c(c1C1CCC(COC)(COC)CC1)CN(C(=O)C13CC(OC)(C1)C3)CC2` [Example 25, (3-(4,4-bis(methoxymethyl)-cyclohexyl)-2-((methyl(2-(methylamino)ethyl)amino)-methyl)-6,7-dihydropyrazolo-[1,5-a]pyrazin-5(4H)-yl)(3-methoxybicyclo[1.1.1]pentan-1-yl)methanone]: the IC50 was 419 nM in experiment [1], 150 nM in experiment [2], 82 nM in experiment [3] and 203 nM in experiment [4].

As for `CNCCN(C)Cc1nn2c(c1C1CCC(COC)(COC)CC1)CN(C(=O)CC1CC1)CC2` [Example 27, 1-(3-(4,4-bis(methoxy-methyl)cyclohexyl)-2-((methyl(2-(methylamino)-ethyl)amino)methyl)-6,7-dihydropyrazolo[1,5-a]-pyrazin-5(4H)-yl)-2-cyclopropylethan-1-one], the IC50 in experiment [1] turned out to be 318 nM; in experiment [2], 79 nM; in experiment [3], 59 nM; in experiment [4], 115 nM.

On to `CNCCN(C)Cc1nn2c(c1C1CCC(COC)(COC)CC1)CN(C(=O)C1(OC)CCC1)CC2` [Example 28, (3-(4,4-bis(methoxymethyl)-cyclohexyl)-2-((methyl(2-(methylamino)ethyl)amino)-methyl)-6,7-dihydropyrazolo-[1,5-a]pyrazin-5(4H)-yl)(1-methoxycyclobutyl)-methanone], for which the IC50 in experiment [1] amounted to 907 nM; in experiment [2] it was 207 nM; in experiment [3], 139 nM; in experiment [4], 435 nM.

For the molecule `CNCCN(C)Cc1nn2c(c1C1CCC(COC)(COC)CC1)CN(C(=O)C1CCC(F)(F)CC1)CC2` [Example 29, (3-(4,4-bis(methoxymethyl)-cyclohexyl)-2-((methyl(2-(methylamino)ethyl)amino)-methyl)-6,7-dihydropyrazolo-[1,5-a]pyrazin-5(4H)-yl)(4,4-difluorocyclohexyl)-methanone], the IC50 in experiment [1] came to 271 nM; in experiment [2] it was 99 nM; in experiment [3], 65 nM; in experiment [4], 84 nM.

On to `CNCCN(C)Cc1nn2c(c1C1CCC(COC)(COC)CC1)CN(C(=O)COC)CC2` [Example 30, 1-(3-(4,4-bis(methoxy-methyl)cyclohexyl)-2-((methyl(2-(methylamino)-ethyl)amino)methyl)-6,7-dihydropyrazolo[1,5-a]-pyrazin-5(4H)-yl)-2-methoxyethan-1-one], for which the IC50 in experiment [1] stood at 795 nM; in experiment [2], 159 nM; in experiment [3], 81 nM; in experiment [4], 795 nM.

Take `CNCCN(C)Cc1nn2c(c1C1CCC(COC)(COC)CC1)CN(C(=O)C1CCCO1)CC2` (centres unmarked) [Example 32, (3-(4,4-bis(methoxymethyl)-cyclohexyl)-2-((methyl(2-(methylamino)ethyl)amino)-methyl)-6,7-dihydropyrazolo-[1,5-a]pyrazin-5(4H)-yl)-(tetrahydrofuran-2-yl)-methanone]: the IC50 was found to be 293 nM in experiment [1], 160 nM in experiment [2], 46 nM in experiment [3] and 163 nM in experiment [4].

With `CNCCN(C)Cc1nn2c(c1C1CCC(COC)(COC)CC1)CN(C(=O)C1CCCC1)CC2` [Example 33, (3-(4,4-bis(methoxymethyl)-cyclohexyl)-2-((methyl(2-(methylamino)ethyl)amino)-methyl)-6,7-dihydropyrazolo-[1,5-a]pyrazin-5(4H)-yl)-(cyclopentyl)methanone], the IC50 in experiment [1] was found to be 120 nM; in experiment [2], 83 nM; in experiment [3] it was 55 nM; in experiment [4] it was 55 nM.

For `CNCCN(C)Cc1nn2c(c1C1CCC(COC)(COC)CC1)CN(C(=O)C1CCOC1)CC2` (centres unmarked) [Example 35, (3-(4,4-bis(methoxymethyl)-cyclohexyl)-2-((methyl(2-(methylamino)ethyl)amino)-methyl)-6,7-dihydropyrazolo-[1,5-a]pyrazin-5(4H)-yl)-(tetrahydrofuran-3-yl)-methanone], the IC50 in experiment [1] is 818 nM; in experiment [2] it was 212 nM; in experiment [3], 62 nM; in experiment [4], 655 nM.
